According to patent publication US20090291939A1, “Treating Alcohol And Or Substance Abuse By Antagonizing Alpha 2 Adrenergic Receptors With Weak Dopamine Blocking” (priority 2002, published 2009):
“Also recorded” adds a separate entry of the source.

Tests used:
golden hamster = conditions: cited from earlier work
animals = conditions: cited from earlier work
Syrian golden hamsters = assay: Free choice alcohol drinking in Syrian golden hamsters with daily s.c. drug treatment; conditions: for body weight, change from baseline: 9-day treatment period; for alcohol consumption during post-hoc period: post-hoc: CLOZ animals 2 days lower dose then 22 days vehicle, HAL animals 0.6, 0.8, then 1 mg/kg over 15 days

O=c1c(-c2ccc(O)cc2)coc2cc(O[C@@H]3O[C@H](CO)[C@@H](O)[C@H](O)[C@H]3O)ccc12 [Daidzin]
alcohol drinking (golden hamster): decreases alcohol drinking

C=CCN1CC[C@]23c4c5ccc(O)c4O[C@H]2C(=O)CC[C@@]3(O)[C@H]1C5 [naloxone]
alcohol consumption (animals): inhibit alcohol consumption

CN1CCN(C2=Nc3cc(Cl)ccc3Nc3ccccc32)CC1 [CLOZ, clozapine]
body weight, change from baseline (Syrian golden hamsters): lost weight | time to onset of decrease in alcohol drinking after first injection (Syrian golden hamsters; first CLOZ injection 2 mg/kg s.c., treatment day #2): ≤ 27 h | alcohol consumption, % of baseline (Syrian golden hamsters; treatment period, by day #6, after four days of 4 mg/kg/day CLOZ s.c.): 10 % of baseline

CN[C@H]1CC[C@@H](c2ccc(Cl)c(Cl)c2)c2ccccc21 [sertraline]
alcohol consumption (animals): inhibit alcohol consumption

O=C1CC[C@@]2(O)[C@H]3Cc4ccc(O)c5c4[C@@]2(CCN3CC2CC2)[C@H]1O5 [naltrexone]
alcohol consumption (animals): inhibit alcohol consumption

O=C(CCCN1CCC(O)(c2ccc(Cl)cc2)CC1)c1ccc(F)cc1 [HAL, haloperidol]
body weight, change from baseline (Syrian golden hamsters): stayed the same | alcohol drinking, change during treatment period (Syrian golden hamsters; 9-day treatment: CLOZ 2 then 4 mg/kg, HAL 0.2 then 0.4 mg/kg, s.c. daily): unchanged | alcohol use over full 24 days of treatment (Syrian golden hamsters; HAL dose ranging from 0.2 mg/kg to 1 mg/kg, including 11 days at highest dose): no evidence of a decrease in alcohol use | alcohol consumption during post-hoc period (Syrian golden hamsters): did not change; also recorded: no change in alcohol drinking | alcohol consumption during post-hoc period (Syrian golden hamsters; listed as haloperidol): no decrease in drinking
